Test results: US6737383B1, “Herbicidal oxadiazolidines” (priority 1999, dated 2004)

Key:
rice = assay: Test B flood test rice; assay type: in vivo, Oryza sativa
Outline: (§1)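 Flood test on plants grown to the 2-leaf stage; treated plants kept in greenhouse twelve to sixteen days, then visually rated against controls on a 0 (no effect) to 10 (complete control) scale.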

rape = assay: Test B pre/postemergence rape; assay type: in vivo, Brassica napus
Outline: (§2)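 Test chemicals in a non-phytotoxic solvent mixture with surfactant were sprayed preemergence onto planted seeds and postemergence onto plants 2 to 18 cm tall (1- to 4-leaf stage). After twelve to sixteen days in a greenhouse, injury was visually rated against untreated controls from 0 (no effect) to 10 (complete control).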

surinam grass = assay: Test B pre/postemergence surinam grass; assay type: in vivo, Brachiaria decumbens
Outline: as §2

blackgrass = assay: Test B pre/postemergence blackgrass; assay type: in vivo, Alopecurus myosuroides
Outline: as §2

bamyardgrass = assay: Test B flood test barnyardgrass; assay type: in vivo, Echinochloa crus-galli
Outline: as §1

wheat = assay: Test B pre/postemergence wheat; assay type: in vivo, Triticum aestivum
Outline: as §2

crabgrass = assay: Test B pre/postemergence crabgrass; assay type: in vivo, Digitaria sanguinalis
Outline: as §2

velvetleaf = assay: Test B pre/postemergence velvetleaf; assay type: in vivo, Abutilon theophrasti
Outline: as §2

smallflower flatsedge = assay: Test B flood test smallflower flatsedge; assay type: in vivo, Cyperus difformis
Outline: as §1

sugar beet = assay: Test B pre/postemergence sugar beet; assay type: in vivo, Beta vulgaris
Outline: as §2

duck salad = assay: Test B flood test duck salad; assay type: in vivo, Heteranthera limosa
Outline: as §1

wild oat = assay: Test B pre/postemergence wild oat; assay type: in vivo, Avena fatua
Outline: as §2

bedstraw = assay: Test B pre/postemergence bedstraw; assay type: in vivo, Galium aparine
Outline: as §2

soybean = assay: Test B pre/postemergence soybean; assay type: in vivo, Glycine max
Outline: as §2

purple nutsedge = assay: Test B pre/postemergence purple nutsedge; assay type: in vivo, Cyperus rotundus; settings: Postemergence
Outline: as §2

corn = assay: Test B pre/postemergence corn; assay type: in vivo, Zea mays
Outline: as §2

cocklebur = assay: Test B pre/postemergence cocklebur; assay type: in vivo, Xanthium strumarium
Outline: as §2

[1] = Rate 62 g/ha, headed Pre-emergence (flood test species), scale 0 to 10 (0 no effect, 10 complete control)
[2] = Rate 125 g/ha, Pre-emergence, flood test species, scale 0 to 10 where 0 is no effect and 10 is complete control
[3] = Rate 250 g/ha, Pre-emergence, flood-test species, scale 0 to 10, 0 is no effect, 10 is complete control
[4] = Rate 500 g/ha, Pre-emergence, flood test species, scale 0 to 10 (0 no effect, 10 complete control)
[5] = Preemergence, Rate 62 g/ha, scale of 0 to 10 where 0 is no effect and 10 is complete control
[6] = Preemergence, Rate 250 g/ha, scale of 0 to 10 where 0 is no effect and 10 is complete control
[7] = Preemergence, Rate 500 g/ha, scale of 0 to 10 where 0 is no effect and 10 is complete control
[8] = Rate 62 g/ha, Postemergence, scale of 0 to 10 where 0 is no effect and 10 is complete control
[9] = Rate 125 g/ha, Postemergence, scale 0 to 10
[10] = Rate 125 g/ha, Preemergence, scale of 0 to 10 where 0 is no effect and 10 is complete control
[11] = Rate 500 g/ha, Postemergence, scale 0 to 10, 0 no effect, 10 complete control

For Cc1ccccc1-n1c(=O)on(C(=O)N(c2ccc(N(C)C)cc2)C(C)C)c1=O [Compound 237], the “Rice plant response rating” value (rice; [1]) was 0, the “Rice plant response rating” value (rice; [2]) was 0 and the “Rice plant response rating” value (rice; [3]) was 0. For the same compound, the “Rice plant response rating” value (rice; [4]) was 0, the “Rape plant response rating” value (rape; [5]) was 0 and the “Rape plant response rating” value (rape; [6]) was 0. The “Plant response rating, Rape” value (rape; [7]) was 0, the “Rape plant response rating” value (rape; [8]) was 0 and the “Rape plant response rating” value (rape; [9]) was 0. For the same compound, the “Rape plant response rating” value (rape; [10]) was 0, the “Plant response rating (0 to 10; 0 is no effect, 10 is complete control), Rape” value (rape; Rate 250 g/ha, Postemergence) was 0 and the “Rape plant response rating” value (rape; [11]) was 0. For the same compound, the “B. signalgrass plant response rating” value (surinam grass; [5]) was 0, the “B. signalgrass plant response rating” value (surinam grass; Preemergence, Rate 250 g/ha, scale 0 to 10, 0 is no effect, 10 is complete control) was 0 and the “Plant response rating, B. signalgrass” value (surinam grass; [7]) was 0. The “B. signalgrass plant response rating” value (surinam grass; [8]) was 0, the “B. signalgrass plant response rating” value (surinam grass; Rate 125 g/ha, Postemergence, scale 0 (no effect) to 10 (complete control)) was 0 and the “B. signalgrass plant response rating” value (surinam grass; [10]) was 0. For the same compound, the “Plant response rating (0 to 10; 0 is no effect, 10 is complete control), B. signalgrass” value (surinam grass; Rate 250 g/ha, Postemergence) was 0, the “B. signalgrass plant response rating” value (surinam grass; [11]) was 0 and the “Blackgrass plant response rating” value (blackgrass; [5]) was 0. For the same compound, the “Blackgrass plant response rating” value (blackgrass; [6]) was 0, the “Plant response rating, Blackgrass” value (blackgrass; [7]) was 0 and the “Blackgrass plant response rating” value (blackgrass; [8]) was 0. The “Blackgrass plant response rating” value (blackgrass; [9]) was 0, the “Blackgrass plant response rating” value (blackgrass; [10]) was 0 and the “Plant response rating (0 to 10; 0 is no effect, 10 is complete control), Blackgrass” value (blackgrass; Rate 250 g/ha, Postemergence) was 0. The “Blackgrass plant response rating” value (blackgrass; [11]) was 0, the “Barnyardgrass plant response rating” value (bamyardgrass; [1]) was 0 and the “Barnyardgrass plant response rating” value (bamyardgrass; [2]) was 0. For the same compound, the “Barnyardgrass plant response rating” value (bamyardgrass; [3]) was 0, the “Barnyardgrass plant response rating” value (bamyardgrass; [4]) was 0 and the “Wheat plant response rating” value (wheat; [5]) was 0. The “Wheat plant response rating” value (wheat; [6]) was 0, the “Plant response rating, Wheat” value (wheat; [7]) was 0 and the “Wheat plant response rating” value (wheat; [8]) was 0. For the same compound, the “Wheat plant response rating” value (wheat; [9]) was 0, the “Wheat plant response rating” value (wheat; [10]) was 0 and the “Plant response rating (0 to 10; 0 is no effect, 10 is complete control), Wheat” value (wheat; Rate 250 g/ha, Postemergence) was 0. The “Wheat plant response rating” value (wheat; [11]) was 0, the “Crabgrass plant response rating” value (crabgrass; [5]) was 0 and the “Crabgrass plant response rating” value (crabgrass; [6]) was 2. The “Plant response rating, Crabgrass” value (crabgrass; [7]) was 3, the “Crabgrass plant response rating” value (crabgrass; [8]) was 0 and the “Crabgrass plant response rating” value (crabgrass; [9]) was 0. For the same compound, the “Crabgrass plant response rating” value (crabgrass; [10]) was 0, the “Plant response rating (0 to 10; 0 is no effect, 10 is complete control), Crabgrass” value (crabgrass; Rate 250 g/ha, Postemergence) was 0 and the “Crabgrass plant response rating” value (crabgrass; [11]) was 0. The “Velvetleaf plant response rating” value (velvetleaf; [5]) was 0, the “Velvetleaf plant response rating” value (velvetleaf; [6]) was 0 and the “Plant response rating, Velvetleaf” value (velvetleaf; [7]) was 0. The “Velvetleaf plant response rating” value (velvetleaf; [8]) was 0, the “Velvetleaf plant response rating” value (velvetleaf; [9]) was 0 and the “Velvetleaf plant response rating” value (velvetleaf; [10]) was 0. The “Plant response rating (0 to 10; 0 is no effect, 10 is complete control), Velvetleaf” value (velvetleaf; Rate 250 g/ha, Postemergence) was 0, the “Velvetleaf plant response rating” value (velvetleaf; [11]) was 2 and the “S. Flatsedge plant response rating” value (smallflower flatsedge; [1]) was 0. The “S. Flatsedge plant response rating” value (smallflower flatsedge; [2]) was 0, the “S. Flatsedge plant response rating” value (smallflower flatsedge; [3]) was 0 and the “S. Flatsedge plant response rating” value (smallflower flatsedge; [4]) was 0. For the same compound, the “Sugarbeets plant response rating” value (sugar beet; [5]) was 0, the “Sugarbeets plant response rating” value (sugar beet; [6]) was 0 and the “Plant response rating, Sugarbeets” value (sugar beet; [7]) was 0. The “Sugarbeets plant response rating” value (sugar beet; [8]) was 0, the “Sugarbeets plant response rating” value (sugar beet; [9]) was 0 and the “Sugarbeets plant response rating” value (sugar beet; [10]) was 0. The “Plant response rating (0 to 10; 0 is no effect, 10 is complete control), Sugarbeets” value (sugar beet; Rate 250 g/ha, Postemergence) was 0, the “Sugarbeets plant response rating” value (sugar beet; [11]) was 0 and the “Ducksalad plant response rating” value (duck salad; [1]) was 0. For the same compound, the “Ducksalad plant response rating” value (duck salad; [2]) was 0, the “Ducksalad plant response rating” value (duck salad; [3]) was 0 and the “Ducksalad plant response rating” value (duck salad; [4]) was 0. The “Wild oats plant response rating” value (wild oat; [5]) was 0, the “Wild oats plant response rating” value (wild oat; [6]) was 0 and the “Plant response rating, Wild oats” value (wild oat; [7]) was 0. For the same compound, the “Wild oats plant response rating” value (wild oat; [8]) was 0, the “Wild oats plant response rating” value (wild oat; [9]) was 0 and the “Wild oats plant response rating” value (wild oat; [10]) was 0. For the same compound, the “Plant response rating (0 to 10; 0 is no effect, 10 is complete control), Wild oats” value (wild oat; Rate 250 g/ha, Postemergence) was 0, the “Wild oats plant response rating” value (wild oat; [11]) was 0 and the “Bedstraw plant response rating” value (bedstraw; [5]) was 0. The “Bedstraw plant response rating” value (bedstraw; [6]) was 0, the “Plant response rating, Bedstraw” value (bedstraw; [7]) was 0 and the “Bedstraw plant response rating” value (bedstraw; [8]) was 0. For the same compound, the “Bedstraw plant response rating” value (bedstraw; [9]) was 0, the “Bedstraw plant response rating” value (bedstraw; [10]) was 0 and the “Plant response rating (0 to 10; 0 is no effect, 10 is complete control), Bedstraw” value (bedstraw; Rate 250 g/ha, Postemergence) was 2. The “Bedstraw plant response rating” value (bedstraw; [11]) was 3, the “Soybean plant response rating” value (soybean; [5]) was 0 and the “Soybean plant response rating” value (soybean; [6]) was 0. The “Plant response rating, Soybean” value (soybean; [7]) was 0, the “Soybean plant response rating” value (soybean; [8]) was 0 and the “Soybean plant response rating” value (soybean; [9]) was 1. The “Soybean plant response rating” value (soybean; [10]) was 0, the “Plant response rating (0 to 10; 0 is no effect, 10 is complete control), Soybean” value (soybean; Rate 250 g/ha, Postemergence) was 1 and the “Soybean plant response rating” value (soybean; [11]) was 1. For the same compound, the “Nutsedge plant response rating” value (purple nutsedge; Rate 62 g/ha, scale of 0 to 10 where 0 is no effect and 10 is complete control) was 0, the “Nutsedge plant response rating” value (purple nutsedge; Rate 125 g/ha, scale 0 to 10) was 0 and the “Plant response rating (0 to 10; 0 is no effect, 10 is complete control), Nutsedge” value (purple nutsedge; Rate 250 g/ha) was 0. For the same compound, the “Nutsedge plant response rating” value (purple nutsedge; Rate 500 g/ha, scale 0 to 10, 0 no effect, 10 complete control) was 0, the “Corn plant response rating” value (corn; [5]) was 0 and the “Corn plant response rating” value (corn; [6]) was 0. The “Plant response rating, Corn” value (corn; [7]) was 0, the “Corn plant response rating” value (corn; [8]) was 0 and the “Corn plant response rating” value (corn; [9]) was 0. For the same compound, the “Corn plant response rating” value (corn; [10]) was 0, the “Plant response rating (0 to 10; 0 is no effect, 10 is complete control), Corn” value (corn; Rate 250 g/ha, Postemergence) was 0 and the “Corn plant response rating” value (corn; [11]) was 0. The “Cocklebur plant response rating” value (cocklebur; [5]) was 0, the “Cocklebur plant response rating” value (cocklebur; [6]) was 0 and the “Plant response rating, Cocklebur” value (cocklebur; [7]) was 0. For the same compound, the “Cocklebur plant response rating” value (cocklebur; [8]) was 0, the “Cocklebur plant response rating” value (cocklebur; [9]) was 0 and the “Cocklebur plant response rating” value (cocklebur; [10]) was 0. The “Plant response rating (0 to 10; 0 is no effect, 10 is complete control), Cocklebur” value (cocklebur; Rate 250 g/ha, Postemergence) was 0 and the “Cocklebur plant response rating” value (cocklebur; [11]) was 0.
